Test system: diarrhea-predominant IBS subjects
Assay: 3007 Study: open-label 52-week safety study, adverse events and withdrawals
[1] = Cilansetron 2 mg/Cilansetron 2 mg, N=257
[2] = Cilansetron 2 mg/Cilansetron 2 mg, N=257, % of appropriate gender
[3] = Cilansetron 2 mg/Cilansetron 2 mg, gender-specific

Cc1nccn1C[C@H]1CCc2c(c3cccc4c3n2CCC4)C1=O [cilansetron, (R)-(−)-4,5,6,8,9,10-hexahydro-10-[(2-methyl-1H-imidazol-1-yl)methyl]-11H-pyrido-[3,2,1-jk]-carbazol-11-one]
12 (2%) n (%): TEAE: Anxiety Symptoms (Overall)
0 n (%): TEAE leading to permanent discontinuation: Psychiatric Disorders [1] | TEAE leading to permanent discontinuation: Psychotic Disorder NOS [1] | TEAE leading to permanent discontinuation: Rash Macular [1] | TEAE leading to permanent discontinuation: Rash NOS [1] | TEAE leading to permanent discontinuation: Rectal Disorder NOS [1] | TEAE leading to permanent discontinuation: Rectal Tenesmus [1] | TEAE leading to permanent discontinuation: Renal and Urinary Disorders [1] | TEAE leading to permanent discontinuation: Stomach Discomfort [1] | TEAE leading to permanent discontinuation: Suicidal Ideation [1] | TEAE leading to permanent discontinuation: Urticaria NOS [1] | TEAE leading to permanent discontinuation: Visual Acuity Reduced [1] | TEAE leading to permanent discontinuation: Benign Ovarian Tumour* [2] | TEAE leading to permanent discontinuation: Breast Cancer NOS* [2] | TEAE leading to permanent discontinuation: Ovarian Cystadenofibroma* [2]
3 (<1%) n (%): TEAE: Allergic Conditions NEC (Overall) | TEAE: Angina Pectoris (Overall) | TEAE: Anxiety Aggravated (Overall) | TEAE: Apocrine and Eccrine Gland Disorders (Overall) | TEAE: Arthritis NOS (Overall)
15 (3%) n (%): TEAE: Abdominal Distension (Overall) | TEAE: Asthenic Conditions (Overall)
10 (2%) n (%): TEAE: Abdominal Pain Lower (Overall)
13 (2%) n (%): TEAE: Abdominal Tenderness (Overall) | TEAE: Arthralgia (Overall)
2 (<1%) n (%): TEAE leading to permanent discontinuation: Neoplasms Benign, Malignant and Unspecified (Incl Cysts and Polyps) [1] | TEAE leading to permanent discontinuation: Rectal Haemorrhage [1] | TEAE leading to permanent discontinuation: Respiratory, Thoracic and Mediastinal Disorders [1] | TEAE: Acquired Hypothyroidism (Overall) | TEAE: Allergies to Foods, Food Additives, Drugs and Other Chemicals (Overall) | TEAE: Anorexia (Overall) | TEAE: Appetite Disorders (Overall) | TEAE: Arthropod Bite (Overall) | TEAE: Asthma NOS (Overall)
35 (7%) n (%): TEAE: Abdominal Pain NOS (Overall)
6 (1%) n (%): TEAE: Arthropathies NEC (Overall)
4 (2%) n (%): TEAE leading to permanent discontinuation: Nervous System Disorders [1]
2 (1%) n (%): TEAE: Female Reproductive Tract Infections* [3]
8 (1%) n (%): TEAE: Anxiety (Overall)
1 (<1%) n (%): TEAE leading to permanent discontinuation: Pregnancy, Puerperium and Perinatal Conditions [1] | TEAE leading to permanent discontinuation: Pruritus NOS [1] | TEAE leading to permanent discontinuation: Skin and Subcutaneous Tissue Disorders [1] | TEAE leading to permanent discontinuation: Somnolence [1] | TEAE leading to permanent discontinuation: Vertigo [1] | TEAE leading to permanent discontinuation: Vomiting NOS [1] | TEAE leading to permanent discontinuation: White Blood Cells Urine Positive [1] | TEAE leading to permanent discontinuation: Ovarian Cancer NOS* [2] | TEAE leading to permanent discontinuation: Pregnancy NOS* [2] | TEAE: Smear Cervix Abnormal* [3] | TEAE: Vaginal Candidiasis* [3] | TEAE: Vaginitis Bacterial NOS* [3] | TEAE: Vaginitis* [3] | TEAE: Vaginosis Fungal NOS* [3] | TEAE: Abdominal Discomfort (Overall) | TEAE: Abdominal Rebound Tenderness (Overall) | TEAE: Abdominal Therapeutic Procedures NEC (Overall) | TEAE: Abdominoplasty (Overall) | TEAE: Abnormal Chest Sounds NOS (Overall) | TEAE: Abnormal Reflexes (Overall) | TEAE: Acne NOS (Overall) | TEAE: Acnes (Overall) | TEAE: Acrochordons (Overall) | TEAE: Adenomyosis* (Overall) | TEAE: Age Related Issues (Overall) | TEAE: Allergy to Insect Sting (Overall) | TEAE: Alopecia (Overall) | TEAE: Alopecias (Overall) | TEAE: Amenorrhoea NOS* (Overall) | TEAE: Anaemia NOS (Overall) | TEAE: Anaemias NEC (Overall) | TEAE: Anal and Rectal Disorders NEC (Overall) | TEAE: Animal Bite (Overall) | TEAE: Appendicitis (Overall) | TEAE: Arrhythmia NOS (Overall) | TEAE: Arthritis NOS Aggravated (Overall) | TEAE: Arthropod Sting (Overall) | TEAE: Asthma Aggravated (Overall)
11 (2%) n (%): TEAE: Abdominal Pain Upper (Overall)
14 (3%) n (%): TEAE: Alanine Aminotransferase Increased (Overall)
33 (13%) n (%): Total Number of Subjects with at Least One TEAE Leading to Discontinuation of Study Medication [1]
4 (<1%) n (%): TEAE: Abdominal Pain Aggravated (Overall) | TEAE: Anal and Rectal Pains (Overall) | TEAE: Anal and Rectal Signs and Symptoms (Overall)
1 (1%) n (%): TEAE: Prostate Examination Abnormal* [3]
7 (1%) n (%): TEAE: Aspartate Aminotransferase Increased (Overall)
